Laboratory results taken from publication PMC3692398 (Biochemical pharmacology, 2013).
Where two headings read alike, the source gives them in different places.

Key:
[1] = biological target: T1, hVMAT2 (Homo sapiens, UniProt Q05940); test: Superfusion release of preloaded [3H]NE from HEK-hVMAT2 cells; format: cell-based; conditions: read-out: Drug-induced release of [3H]NE EC50 ± sem, hVMAT2; superfusion
[2] = biological target: T2, h5-HT1A receptor (Homo sapiens, UniProt P08908); test: Stimulation of [35S]GTPγS binding, HEK-h5-HT1A membranes; format: biochemical; conditions: for h5-HT1A Stimulation of [35S]GTPγS binding % maximum stimulation ± sem: normalized to the maximal stimulation by 5-HT; for EC50: read-out: h5-HT1A Stimulation of [35S]GTPγS binding EC50 ± sem
T2 sequence (P08908 1-422): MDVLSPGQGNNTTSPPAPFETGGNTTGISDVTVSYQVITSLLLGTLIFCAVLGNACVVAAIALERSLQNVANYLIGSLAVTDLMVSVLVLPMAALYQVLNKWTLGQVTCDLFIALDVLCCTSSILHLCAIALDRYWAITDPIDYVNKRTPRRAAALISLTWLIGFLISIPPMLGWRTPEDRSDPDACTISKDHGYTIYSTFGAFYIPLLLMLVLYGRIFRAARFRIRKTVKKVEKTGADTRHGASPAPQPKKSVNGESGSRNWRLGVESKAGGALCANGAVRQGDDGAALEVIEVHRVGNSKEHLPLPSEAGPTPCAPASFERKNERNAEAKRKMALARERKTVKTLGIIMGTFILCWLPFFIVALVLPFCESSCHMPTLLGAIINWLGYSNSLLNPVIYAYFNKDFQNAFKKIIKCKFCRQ

[3] = biological target: hSigma1 receptor (Homo sapiens, UniProt Q99720); test: [3H]; format: binding; conditions: read-out: Inhibition of [3H]pentazocine binding Ki ± sem, hSigma1
[4] = biological target: T3, h5-HT2C receptor (Homo sapiens, UniProt P28335); test: biochemical; format: binding; conditions: read-out: Inhibition of radioligand binding Ki ± sem, h5-HT2C [125I]DOI
T3 sequence (P28335 33-458): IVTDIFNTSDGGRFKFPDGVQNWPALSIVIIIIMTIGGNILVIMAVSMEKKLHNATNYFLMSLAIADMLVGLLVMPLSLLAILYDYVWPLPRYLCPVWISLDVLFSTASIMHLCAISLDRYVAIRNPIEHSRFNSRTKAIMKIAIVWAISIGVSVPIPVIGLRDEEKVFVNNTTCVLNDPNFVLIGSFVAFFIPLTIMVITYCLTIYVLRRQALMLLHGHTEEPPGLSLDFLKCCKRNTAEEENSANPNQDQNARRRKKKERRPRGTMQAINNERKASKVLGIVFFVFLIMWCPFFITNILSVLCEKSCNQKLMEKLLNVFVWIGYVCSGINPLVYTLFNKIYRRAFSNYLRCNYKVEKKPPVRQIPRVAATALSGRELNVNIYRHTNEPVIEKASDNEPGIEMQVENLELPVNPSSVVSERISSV

[5] = biological target: T4, h5-HT2A receptor (Homo sapiens, UniProt P28223); test: [125I]DOI binding, HEK-h5-HT2A; conditions: read-out: Inhibition of radioligand binding Ki ± sem, h5-HT2A [125I]DOI
[6] = biological target: T5, hDAT (Homo sapiens, UniProt Q01959); test: Inhibition of [125I]RTI-55 binding, HEK-hDAT membranes; conditions: read-out: Inhibition of [125I]RTI-55 binding Ki ± sem, hDAT; HEK-hDAT membranes
[7] = biological target: T1, hVMAT2; test: Inhibition of [3H]5-HT uptake, HEK-hVMAT2 membrane preparation; format: biochemical; conditions: read-out: Inhibition of [3H]5-HT uptake IC50 ± sem, hVMAT2; 40 nM [3H]5-HT, 2 mM MgATP
[8] = biological target: T6, hSERT (Homo sapiens, UniProt P31645); test: Inhibition of [3H]5-HT uptake, intact HEK-hSERT cells; format: cell-based; conditions: read-out: Inhibition of [3H]neurotransmitter uptake IC50 ± sem, hSERT [3H]5-HT; 20 nM [3H]5-HT, intact cells
[9] = biological target: T3, h5-HT2C receptor; test: Inhibition of 5-HT-stimulated IP-1 formation; format: cell-based; conditions: 100 nM 5-HT; normalized to maximal inhibition by SB242084 (1 µM)
[10] = biological target: T5, hDAT; test: Superfusion release of preloaded [3H]DA from HEK-hDAT cells; format: cell-based; conditions: for EC50: read-out: Drug-induced release of [3H]neurotransmitter EC50 ± sem, hDAT [3H]DA, superfusion, AUC
[11] = biological target: T7, hNET (Homo sapiens, UniProt P23975); test: Superfusion release of preloaded [3H]NE from HEK-hNET cells; format: cell-based; conditions: for EC50: read-out: Drug-induced release of [3H]neurotransmitter EC50 ± sem, hNET [3H]NE, superfusion, AUC; for % maximum release ± sem, hNET [3H]NE: relative to maximal AUC induced by METH (0.3 or 1 µM)
[12] = biological target: T2, h5-HT1A receptor; test: [3H]8-OH-DPAT binding, HEK-h5-HT1A; conditions: read-out: Inhibition of radioligand binding Ki ± sem, h5-HT1A [3H]8OH-DPAT
[13] = biological target: T5, hDAT; test: Inhibition of [3H]DA uptake, intact HEK-hDAT cells; format: cell-based; conditions: for IC50: read-out: Inhibition of [3H]neurotransmitter uptake IC50 ± sem, hDAT [3H]DA, 20 nM [3H]DA, intact cells
[14] = biological target: T7, hNET; test: biochemical; format: binding; conditions: read-out: Inhibition of [125I]RTI-55 binding Ki ± sem, hNET
[15] = overdose with a bath salt product containing 4-FMC and MDPV; ref [44]; cited from earlier work
[16] = biological target: T7, hNET; test: cell-based; format: cell-based; conditions: for IC50: read-out: Inhibition of [3H]neurotransmitter uptake IC50 ± sem, hNET [3H]NE
[17] = biological target: T6, hSERT; test: Superfusion release of preloaded [3H]5-HT from HEK-hSERT cells; format: cell-based; conditions: for EC50: read-out: Drug-induced release of [3H]neurotransmitter EC50 ± sem, hSERT [3H]5-HT, superfusion, AUC
[18] = biological target: T4, h5-HT2A receptor; test: Inhibition of 5-HT-stimulated IP-1 formation; format: cell-based; conditions: 100 nM 5-HT; for h5-HT2A Inhibition of 5-HT-stimulated IP-1 formation % maximum inhibition ± sem: normalized to maximal inhibition by ketanserin (10 µM); for IC50: read-out: h5-HT2A Inhibition of 5-HT-stimulated IP-1 formation IC50 ± sem
[19] = biological target: T8, human D4.4 receptor (Homo sapiens, UniProt P21917); format: binding; conditions: test drugs up to 10 µM; words give concentration range, 'low' = low nanomolar
T8 sequence (P21917 1-419): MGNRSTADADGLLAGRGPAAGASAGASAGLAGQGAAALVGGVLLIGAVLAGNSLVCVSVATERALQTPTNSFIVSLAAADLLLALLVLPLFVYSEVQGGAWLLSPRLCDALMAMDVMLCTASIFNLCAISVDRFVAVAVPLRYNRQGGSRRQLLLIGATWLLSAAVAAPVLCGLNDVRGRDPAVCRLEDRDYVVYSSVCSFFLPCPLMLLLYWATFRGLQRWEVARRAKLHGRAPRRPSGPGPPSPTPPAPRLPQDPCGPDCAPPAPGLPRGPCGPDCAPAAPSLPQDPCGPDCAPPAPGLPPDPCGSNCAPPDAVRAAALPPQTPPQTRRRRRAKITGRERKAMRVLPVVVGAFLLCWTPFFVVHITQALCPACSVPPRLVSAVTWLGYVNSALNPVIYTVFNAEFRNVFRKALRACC

[20] = biological target: T3, h5-HT2C receptor; format: cell-based
[21] = biological target: T1, hVMAT2; test: Inhibition of [3H]DHTB binding, HEK-hVMAT2 membranes; conditions: read-out: Inhibition of [3H]DHTB binding Ki ± sem, hVMAT2
[22] = biological target: human DA D3 receptor (Homo sapiens, UniProt P35462); test: [3H]YM-09151-2 binding, CHOp-D3 cells; conditions: test drugs up to 10 µM; words give concentration range, 'low' = low nanomolar
[23] = biological target: human DA D2 receptor (Homo sapiens, UniProt P14416); format: binding; conditions: test drugs up to the maximal concentration tested (10 µM)
[24] = biological target: human DA D1 receptor (Homo sapiens, UniProt P21728); test: [3H]SCH23390 binding, LhD1 cells; conditions: test drugs up to the maximal concentration tested (10 µM)
Sequence of human DA D1 receptor (P21728 whole entry): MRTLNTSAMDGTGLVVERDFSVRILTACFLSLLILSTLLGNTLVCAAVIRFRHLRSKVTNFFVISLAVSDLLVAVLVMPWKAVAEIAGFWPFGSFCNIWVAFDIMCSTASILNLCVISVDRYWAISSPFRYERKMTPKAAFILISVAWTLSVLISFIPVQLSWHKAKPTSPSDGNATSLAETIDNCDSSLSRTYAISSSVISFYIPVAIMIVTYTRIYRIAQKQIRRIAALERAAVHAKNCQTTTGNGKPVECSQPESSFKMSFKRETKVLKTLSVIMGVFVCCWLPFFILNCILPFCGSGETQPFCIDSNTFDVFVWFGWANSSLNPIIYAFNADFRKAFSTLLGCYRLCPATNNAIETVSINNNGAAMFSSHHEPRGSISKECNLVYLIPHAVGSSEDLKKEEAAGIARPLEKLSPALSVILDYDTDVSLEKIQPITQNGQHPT

T1 sequence (Q05940 whole entry, the tested form may be a part): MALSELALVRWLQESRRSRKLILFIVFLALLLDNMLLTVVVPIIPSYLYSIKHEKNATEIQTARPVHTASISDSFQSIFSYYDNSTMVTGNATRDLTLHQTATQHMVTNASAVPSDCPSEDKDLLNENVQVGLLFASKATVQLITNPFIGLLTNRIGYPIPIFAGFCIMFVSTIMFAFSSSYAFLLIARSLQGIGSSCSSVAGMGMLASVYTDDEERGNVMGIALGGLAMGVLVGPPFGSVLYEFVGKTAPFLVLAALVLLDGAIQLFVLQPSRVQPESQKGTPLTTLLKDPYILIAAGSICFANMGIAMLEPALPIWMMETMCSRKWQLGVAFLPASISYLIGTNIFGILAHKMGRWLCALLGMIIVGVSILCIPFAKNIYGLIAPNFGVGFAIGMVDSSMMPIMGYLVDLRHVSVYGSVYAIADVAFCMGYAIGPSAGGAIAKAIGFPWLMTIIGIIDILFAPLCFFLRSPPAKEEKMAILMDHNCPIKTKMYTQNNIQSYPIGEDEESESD
T4 sequence (P28223 whole entry): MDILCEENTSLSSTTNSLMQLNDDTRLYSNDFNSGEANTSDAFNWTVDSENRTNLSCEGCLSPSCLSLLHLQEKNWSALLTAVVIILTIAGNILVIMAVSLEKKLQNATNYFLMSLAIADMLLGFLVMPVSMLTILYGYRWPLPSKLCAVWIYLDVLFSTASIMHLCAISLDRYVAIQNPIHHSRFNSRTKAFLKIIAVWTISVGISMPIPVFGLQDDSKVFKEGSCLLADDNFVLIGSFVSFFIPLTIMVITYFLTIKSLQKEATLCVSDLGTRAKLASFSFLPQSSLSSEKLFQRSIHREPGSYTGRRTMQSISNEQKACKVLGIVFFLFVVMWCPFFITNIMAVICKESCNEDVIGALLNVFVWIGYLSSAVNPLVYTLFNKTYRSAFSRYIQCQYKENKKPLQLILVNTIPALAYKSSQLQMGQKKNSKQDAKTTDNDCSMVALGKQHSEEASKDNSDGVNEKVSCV
T5 sequence (Q01959 whole entry): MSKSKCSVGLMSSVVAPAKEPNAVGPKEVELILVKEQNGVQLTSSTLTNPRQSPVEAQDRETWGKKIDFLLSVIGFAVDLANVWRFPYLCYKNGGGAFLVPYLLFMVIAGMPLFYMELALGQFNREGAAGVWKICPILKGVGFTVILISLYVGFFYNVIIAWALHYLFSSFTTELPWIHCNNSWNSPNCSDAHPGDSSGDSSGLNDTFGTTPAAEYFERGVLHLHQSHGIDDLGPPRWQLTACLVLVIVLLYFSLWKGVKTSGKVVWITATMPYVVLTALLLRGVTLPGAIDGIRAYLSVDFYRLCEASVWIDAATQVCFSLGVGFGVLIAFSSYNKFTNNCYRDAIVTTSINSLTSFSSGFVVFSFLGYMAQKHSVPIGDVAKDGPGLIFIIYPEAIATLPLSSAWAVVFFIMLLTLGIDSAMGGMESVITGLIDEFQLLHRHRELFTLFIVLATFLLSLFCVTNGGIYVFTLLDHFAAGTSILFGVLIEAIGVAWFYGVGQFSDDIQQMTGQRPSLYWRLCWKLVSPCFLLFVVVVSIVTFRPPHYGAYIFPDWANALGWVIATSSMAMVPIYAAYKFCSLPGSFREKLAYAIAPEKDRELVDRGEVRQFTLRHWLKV
T6 sequence (P31645 whole entry): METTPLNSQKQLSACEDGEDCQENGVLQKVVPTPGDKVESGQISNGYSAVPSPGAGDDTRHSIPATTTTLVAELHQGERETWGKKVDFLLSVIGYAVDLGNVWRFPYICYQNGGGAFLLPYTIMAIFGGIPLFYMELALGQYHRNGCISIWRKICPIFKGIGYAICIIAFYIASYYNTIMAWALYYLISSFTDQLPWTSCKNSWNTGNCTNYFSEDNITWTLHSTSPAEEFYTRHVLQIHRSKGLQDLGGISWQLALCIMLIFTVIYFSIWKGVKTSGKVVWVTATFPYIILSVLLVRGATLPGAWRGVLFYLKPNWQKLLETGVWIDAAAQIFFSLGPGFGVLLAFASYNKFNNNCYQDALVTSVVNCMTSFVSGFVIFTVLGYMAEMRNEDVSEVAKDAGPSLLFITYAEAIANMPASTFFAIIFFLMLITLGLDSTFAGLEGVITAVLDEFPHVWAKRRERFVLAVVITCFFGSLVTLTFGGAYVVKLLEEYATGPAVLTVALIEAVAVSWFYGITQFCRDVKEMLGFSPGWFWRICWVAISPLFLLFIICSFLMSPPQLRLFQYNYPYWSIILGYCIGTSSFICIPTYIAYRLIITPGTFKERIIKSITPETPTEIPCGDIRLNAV
T7 sequence (P23975 whole entry, the tested form may be a part): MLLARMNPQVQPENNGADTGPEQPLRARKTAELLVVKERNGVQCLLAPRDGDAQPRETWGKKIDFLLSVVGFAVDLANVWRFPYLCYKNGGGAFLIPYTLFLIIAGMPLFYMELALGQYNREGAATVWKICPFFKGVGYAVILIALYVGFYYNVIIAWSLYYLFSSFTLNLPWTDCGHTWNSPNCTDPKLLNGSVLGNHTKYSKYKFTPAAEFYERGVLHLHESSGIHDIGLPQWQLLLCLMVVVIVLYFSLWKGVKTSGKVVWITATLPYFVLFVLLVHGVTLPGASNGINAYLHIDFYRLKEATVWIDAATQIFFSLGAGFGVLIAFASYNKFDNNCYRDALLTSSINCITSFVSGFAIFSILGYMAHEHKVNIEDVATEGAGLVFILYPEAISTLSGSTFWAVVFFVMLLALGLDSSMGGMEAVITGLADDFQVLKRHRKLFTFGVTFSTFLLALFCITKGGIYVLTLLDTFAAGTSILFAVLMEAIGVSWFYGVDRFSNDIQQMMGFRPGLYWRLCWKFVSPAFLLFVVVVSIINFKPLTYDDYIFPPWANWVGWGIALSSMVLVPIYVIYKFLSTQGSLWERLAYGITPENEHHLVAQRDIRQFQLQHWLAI
Sequence of hSigma1 receptor (Q99720 whole entry): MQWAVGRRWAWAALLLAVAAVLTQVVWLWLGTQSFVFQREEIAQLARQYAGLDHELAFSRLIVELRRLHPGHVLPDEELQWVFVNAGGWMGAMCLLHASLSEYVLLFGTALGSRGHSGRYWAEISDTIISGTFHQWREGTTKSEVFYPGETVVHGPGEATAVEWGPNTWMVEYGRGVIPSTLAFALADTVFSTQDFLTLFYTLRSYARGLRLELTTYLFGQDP
Sequence of human DA D3 receptor (P35462 whole entry): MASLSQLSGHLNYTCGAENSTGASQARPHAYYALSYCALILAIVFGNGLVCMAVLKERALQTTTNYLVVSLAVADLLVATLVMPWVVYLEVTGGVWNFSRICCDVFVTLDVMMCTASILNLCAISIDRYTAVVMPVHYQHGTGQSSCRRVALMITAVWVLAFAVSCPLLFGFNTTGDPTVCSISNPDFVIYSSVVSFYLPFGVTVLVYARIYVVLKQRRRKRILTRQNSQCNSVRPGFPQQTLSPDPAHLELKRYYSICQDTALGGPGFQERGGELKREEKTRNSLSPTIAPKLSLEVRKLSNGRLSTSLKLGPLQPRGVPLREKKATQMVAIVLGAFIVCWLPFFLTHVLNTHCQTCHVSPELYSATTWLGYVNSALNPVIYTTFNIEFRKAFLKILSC
Sequence of human DA D2 receptor (P14416 whole entry): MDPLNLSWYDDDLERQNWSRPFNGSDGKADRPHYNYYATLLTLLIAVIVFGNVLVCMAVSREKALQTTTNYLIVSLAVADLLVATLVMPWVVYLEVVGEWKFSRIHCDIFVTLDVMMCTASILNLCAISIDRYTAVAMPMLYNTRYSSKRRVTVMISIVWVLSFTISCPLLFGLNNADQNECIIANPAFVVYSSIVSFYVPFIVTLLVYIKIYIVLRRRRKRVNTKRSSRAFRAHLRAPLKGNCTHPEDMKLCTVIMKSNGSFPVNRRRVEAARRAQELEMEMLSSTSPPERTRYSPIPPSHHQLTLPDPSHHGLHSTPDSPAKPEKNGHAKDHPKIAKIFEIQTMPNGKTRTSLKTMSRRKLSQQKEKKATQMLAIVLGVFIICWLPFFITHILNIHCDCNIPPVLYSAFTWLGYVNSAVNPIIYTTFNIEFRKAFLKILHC

Row | Compound | EC50 [1] [µM] | h5-HT1A Stimulation of [35S]GTPγS binding % maximum stimulation ± sem [2] [%] | EC50 [2] [µM] | Ki [3] [µM] | Ki [5] [µM] | Ki [6] [µM] | IC50 [7] [µM] | IC50 [8] [µM] | h5-HT2C Inhibition of 5-HT-stimulated IP-1 formation % maximum inhibition ± sem [9] [%] | EC50 [10] [µM] | EC50 [11] [µM] | % maximum release ± sem, hNET [3H]NE [11] [%] | Ki [12] [µM] | IC50 [13] [µM] | % maximum release ± sem, hSERT [3H]5-HT [17] [%] | EC50 [17] [µM] | h5-HT2A Inhibition of 5-HT-stimulated IP-1 formation % maximum inhibition ± sem [18] [%] | IC50 [18] [µM] | further results
1 | CNC(C)C(=O)c1ccc(F)cc1 (stereo not drawn) [4-FMC, 4-fluoromethcathinone] | > 100 | 70.7 ± 8.3 | 156 ± 3.4 | 24.2 ± 9 | 10 ± 1 | 10.4 ± 3.3 | 178 ± 36 | > 10 | 15 ± 20 | 17.8 ± 7.6 | 1.53 ± 0.43 | 194 ± 58 | 71.6 ± 3.4 | 0.273 ± 0.074 | 39.3 ± 9.7 | 39 ± 14 | 97.0 ± 1.6 | 23.6 ± 3 | Ki [4]: 12.6 ± 2.4 µM; % maximum release ± sem, hDAT [3H]DA [10]: 98 ± 14%; time of peak/maximal [3H]DA release after addition of drug ([10]; 4-FMC 10 µM to 300 µM, mephedrone 30 µM, methylone 100 µM): about 6 min; fold less potent than METH to induce [3H]DA release ([10]; EC50 compared to METH): 45 fold; time of peak [3H]NE release after addition of drug [11]: 8 to 16 min; ratio of binding Ki to uptake IC50, hDAT ([13]; [125I]RTI-55 Ki / [3H]DA uptake IC50): 38; Ki ([14]; HEK-hNET membranes): 35 ± 10 µM; serum concentration in overdose [15]: 346 ng/mL; serum concentration in overdose (molar) [15]: ~ 1.6 uM; ratio of binding Ki to uptake IC50, hNET ([16]; [125I]RTI-55 Ki / [3H]NE uptake IC50): 276; IC50 ([16]; 20 nM [3H]NE, intact cells): 0.127 ± 0.02 µM; time of peak [3H]5-HT release after addition of drug [17]: about 6 min
2 | CNC(C)Cc1ccc2c(c1)OCO2 (stereo not drawn) [MDMA, 3,4-methylenedioxymethylamphetamine, reference compound] | 114 ± 40 | 65.8 ± 8.5 | 35 ± 14 | 19.4 ± 6.3 | 8.3 ± 1.2 | 22 ± 5.1 | 5.8 ± 1.4 | 0.109 ± 0.017 | 9 ± 12 | 4.8 ± 2.3 | 0.57 ± 0.19 | 116 ± 11 | 14.1 ± 2.4 | 0.201 ± 0.047 | 74 ±12 | 1.04 ± 0.27 | 96.3 ± 3.8 | 189 ± 52 | affinity for the [3H]YM-09151-2 binding site, DA D4.4 receptor [19]: no measurable affinity; h5-HT2C agonist activity, inositol monophosphate [20]: full agonist with low micromolar potency; Ki [21]: 661 ± 58 µM; % maximum release ± sem, hDAT [3H]DA ([10]; relative to maximal AUC induced by METH (1 or 10 µM)): 104 ± 14%; Ki [14]: 30.9 µM; affinity for the [3H]YM-09151-2 binding site, DA D3 receptor [22]: no measurable affinity; IC50 [16]: 0.0242 µM; affinity for the [3H]YM-09151-2 binding site, DA D2 receptor [23]: no measurable affinity; affinity for the [3H]SCH23390 binding site, DA D1 receptor [24]: no measurable affinity
